Results from US20190307691A1, “HYDROGELS WITH LIPOSOMES FOR CONTROLLED RELEASE OF DRUGS” (NORTHERN ILLINOIS RESEARCH FOUNDATION, priority 2018, published 2019).

Key:
[1] = Differential scanning calorimetry for thermal stability; conditions: DSC, measure of thermal stability
Method: Differential scanning calorimetry (DSC) was used to investigate the thermal stability as well as interaction between liposomes and entrapped protein.
For thermal stability analysis of liposomes and encapsulated protein, two mg of standard lipids, protein and liposome samples were loaded in aluminum pans along with the standard reference aluminum in the differential scanning calorimeter (Shimadzu DSC 60). The thermal profiles were recorded between 10° C. and 180° C. at a scan rate of 15° C./min for three cycles.

ARPE-19 cells = test: MTT cell viability with Avastin and Avastin liposomes; type: cell-based; conditions: exposed to 2 mg of the antibody
Method: ARPE-19 cells purchased from American Type Culture Collection were used. […] Cells were plated in 12-well plates with an initial seeding density of 5×10^4 cells per ml in each plate. Cells were grown to confluency for 4 days prior to experimentation; 12-well plates were used for MTT assays. 1.5 ml of 25 mg/ml Avastin solution was sterile filtered to create a stock solution that was transferred to a sterile centrifuge tube. Each well of the 12 well plate had its media aspirated out and was then rinsed with buffer which was also aspirated out. […] Enough media was added to each well to create a total volume of 1 ml in each well. […] 1.3 ml of 10% MTT 5 mg/ml in PBS and 11.7 ml of 90% media (with phenol red) was used. MTT in PBS was added to the media in a centrifuge tube and then sterile filtered. The filtered mixture was then plated on the 12 well plate (1 ml per well). The plate was then incubated for 90 minutes. After incubation, the MTT media was aspirated. 1 ml of DMSO per well was added. The MTT assay was read at 560 nm.

[2] = Intravitreal drug release and toxicity in rabbit's eye (Fluorotron, ELISA, histopathology); type: in vivo, Oryctolagus cuniculus (Dutch belted rabbits); conditions: single intravitreal injection
Method: The efficacy of the liposomes and the combination product has been tested using rabbit models. The experimental design of this experiment involving Oryctolagus cuniculus (Dutch belted rabbits) was approved by the Northern Illinois University Institutional Animal Care and Use Committee (IACUC) and is as follows. Rabbits were divided into 4 groups and each rabbit was injected with the formulation in the right eye using left eye as control.
Drug release profiles in the rabbit's eye over a period of time was measured non-invasively using the Fluorotron. […] Light re-emitted (reflection and fluorescence) by the fluorescent tag on the protein is sampled from the 1.9×0.1 mm slit, aligned to the excitation and defined by an aperture Rd (which is confocal to Re). […] The configuration of these pupils is in the plane of the subject's pupil minimizes contributions from the fluorescence outside of the measurement point by separating the excitation and detection paths. Another band-pass filter rejects reflected excitation light, and the fluorescence collected by aperture Rd is detected using a red-extended end-on photomultiplier tube selected for low (<100 count/sec.) dark noise. As the focus lens is driven forward the emission signal is continuously monitored from retina to cornea, giving an intensity output. […]

[3] = cited from earlier work
RPE cells = conditions: 2.5 mg/ml; cited from earlier work
[4] = L-DOPA oxidation in solution (UV-Vis, LC/MS); type: physicochemical
Method: The solution was stored with minimal exposure to light. […] In order to accelerate the complete oxidation of L-DOPA starting material, the substance was reacted in at pH 10. […] These hydrophobic oxidation products were separated and collected for in vitro experiments with epithelialcells.
LC/MS analysis was performed using an LCQ Advantage Mass Spectrometer System with a Surveyor LC Pump and PDA Detector (Thermo Finnigan). Separations were performed on a 100 mm×3.0 mm Kinetex C18 column. Mobile phase was 0.1% formic acid in MeOH (B) balanced with water. […] Absorbance was monitored at 280 and 320 nm. For ESI-MS conditions, capillary temperature was 200° C. and spray voltage was set to 4.5 kV. […] Full spectra were collected between m/z range of 200-1000.

[5] = cited from earlier work; remark: listed apart in the source
[6] = oral, in the absence of decarboxylase inhibitors; cited from earlier work

**Q.** With CC(C)CCC[C@@H](C)[C@H]1CC[C@H]2[C@@H]3CC=C4C[C@@H](O)CC[C@]4(C)[C@H]3CC[C@]12C [Cholesterol] as the compound, how does the “Melting temperature, Tm” value [1] read?
**A.** ~154° ° C.

**Q.** What does the source list for “Bevacizumab: anti-VEGF antibody, anti-angiogenic agent”?
**A.** cell viability (MTT) (ARPE-19 cells): decreased slightly; Time of release of a therapeutic concentrate [2]: 5 weeks; intravitreal half-life ([3]; intravitreal): about 4.32 days; concentration in the vitreous ([3]; maintained over a period of 30 days): about 10 μg/ml; effect on RPE cells (RPE cells): cytotoxic effects

**Q.** For CCCCCCCC/C=C\CCCCCCCC(=O)OC[C@H](COP(=O)(O)OCCN)OC(=O)CCCCCCC/C=C\CCCCCCCC [DOPE], which “Melting temperature, Tm” value [1] is on record?
**A.** ~63° ° C.

**Q.** For CCCCCCCCCCCCCC(=O)OC[C@H](COP(=O)([O-])OCC[N+](C)(C)C)OC(=O)CCCCCCCCCCCCC [DMPC], which “Melting temperature, Tm” value [1] is on record?
**A.** ~42° ° C.

**Q.** What does the source list for N[C@@H](Cc1ccc(O)c(O)c1)C(=O)O [L-DOPA]?
**A.** oxidation of L-DOPA ([4]; PBS pH 7.4, after 3 days, minimal exposure to light): does not undergo complete oxidation; oxidation of L-DOPA ([4]; pH 7.4 solution, after 35 days): substantial oxidation; oxidation of L-DOPA ([4]; pH 10, after 24 hours): completely consumed; drug oxidized to melanin ([5]; after 24 hr in neutral pH): 47%; drug oxidized ([5]; under basic conditions): at least 50.9%; unmetabolized drug reaching the brain [6]: less than 1%

**Q.** With CCCCCCCCCCCCCCCCCC(=O)OCC(COP(=O)(O)OCC(O)CO)OC(=O)CCCCCCCCCCCCCCCCC (stereo not drawn) [DSPG] as the compound, how does the “Melting temperature, Tm” value [1] read?
**A.** ~40° ° C.
